# Patent US5587402A, “Regression of mammalian leukemia cell tumors” (priority 1995, dated 1996)
# Assays:
# [1] = test system: p210-transformed FDC-P1 cells; assay: Proliferation of p210 bcr/abl-transformed FDC-P1 myeloid cells; format: cell-based, murine
# Protocol: (The p210 bcr/abl oncogene is carried on a helper-free retrovirus referred to as "p210.") FDC-P1 myeloid cells are an immature cell line from myeloid lineage derived from mouse bone marrow (Dexter, TM, J. Exp. Med. 152: 1036-1047, 1980).
# M600B cells = assay: Inhibition of M600B cell growth; format: cell-based, human; conditions: FIG. 4
# Protocol: NIH3T3 (mouse embryo) cells were obtained from the American Type Culture Collection and were grown in Dulbecco's modified Eagle's medium supplemented with 10% calf serum. M600B immortalized human mammary epithelial cells (Stampfer, M. R., 1985, J. Tissue Culture Methods 9: 107-115) were obtained from Dr. Martha Stampfer and were grown in supplemented HCDB 170 medium (Hammond, et al. (1984) Proc. Natl. Acad. Sci U.S.A. 81: 5435-5439), as described previously (Stampfer, et al. (1985) Proc. Natl. Acad. Sci U.S.A. 82: 2394-2398; Eldridge, et al. (1989) Cancer Res. 49: 4326-4331).
# All cells were maintained in 100-mm dishes at 37° C. in a humidified 5% CO2 atmosphere. Viable cells were distinguished from nonviable cells by counting azure II/methylene blue-stained colonies 10 days after the cells were plated at a density of 100 cells per dish. Trypan blue exclusion was measured by incubating cells for 1 minute with one drop of trypan blue per 10 ml of cells. Viable (colorless) and nonviable (blue) cells were then counted on a hemocytometer.
# Additionally, growth of HT29 (human colon adenocarcinoma) cells was inhibited by 80% by 1 mM perillyl alcohol.
# [2] = test system: p210 transformed FDC-P1 cells (F-p210.1); assay: Cell cycle distribution of p210-transformed FDC-P1 cells; format: cell-based, murine; conditions: for Cell cycle distribution (% > GO /G1): untreated control 53; for arrest at the G0/G1 stage: 500 μM
# Protocol: Table 3 tabulates the effect of P-OH on cell cycle distribution of nontransformed and p210 transformed FDC-P1 cells.
# ^1 Cells were plated at 2.5 × 10^5 per ml in duplicate well
# of a 24well plate in the presence of 10% WEHI3-conditioned media as a
# source of IL3 and with the indicated concentration of P--OH. After 24
# hours, the cells were fixed in ethanol, permeabilized and stained with
# propidium iodide, then analyzed for DNA content by flow cytometry.
# ^2 FDCP1 = nontransformed cells, Fp210.1 = 210transformed FDCP1 cells
# human cancer cell lines = assay: Growth of human cancer cell lines (NCI Developmental Therapeutics Program); format: cell-based
# Protocol: Various concentrations of perillyl alcohol inhibited the growth of a number of human cancer cell lines. FIG. 5A-G is a set of diagrams showing the effects of perillyl alcohol on different cancer cell lines. These experiments were conducted by the National Cancer Institute Developmental Therapeutics Program.
# [3] = test system: isoprenylation of 21-26 kDa proteins in HT29 cells; assay: Protein isoprenylation in HT29 cells; format: cell-based; conditions: Homo sapiens, HT-29; 1 mM; read-out: decrease of isoprenylation of 21-26 kDa proteins
# Protocol: "Isoprenylation" is the addition of a multiple of the 5 carbon isoprene unit to a protein. Our experiments in isoprenylation are reported at Crowell, et al. 1991, J. Biol. Chem. 266: 17679-17685. To test whether a specific monoterpene affects isoprenylation of proteins in cells, cell extracts were incubated with a radioactive isoprene precursor and 0-5 mM of the test monoterpene and then subjected to SDS-PAGE. Because they carried a radioactive label, isoprenylated proteins were visualized by fluorography. As a control, cells were incubated without the monoterpene.
# Cells were harvested after trypsin treatment, washed twice with phosphate-buffered saline, suspended in electrophoresis sample buffer (Laemmli, U.K., 1970, Nature 227: 680-685), and either analyzed immediately or stored at -20° C. Whole cell extracts were analyzed by SDS-PAGE on 16-cm×18-cm×0.75-mm gels by the method of Laemmli (supra). The acrylamide concentrations were 5% for the stacking gel and 12% for the separating gel. […] Some fluorograms were analyzed further by densitometry. Where indicated, gels were sliced, dissolved at 50° C. for 3 hours in 0.5 ml of water +0.5 ml of Solvable (Amersham), and then analyzed by scintillation spectrometry in 10 ml of Atomlight (Amersham) mixture. Protein content was measured by the method of Lowry, et al. (1951, J. Biol. Chem. 193: 265-275). […]
# [4] = test system: DMBA-induced rat mammary carcinomas; assay: Pair-feeding study: regression and inhibition of DMBA-induced mammary carcinomas in rats; format: in vivo, Wistar-Furth female rats
# Protocol: We used Wistar-Furth female rats for in vivo studies. Wistar-Furth female rats were obtained from Harlan Sprague-Dawley, Inc., (Madison, Wis.). […] Rates were provided Teklad Lab blox chow and acidified water ad libitum.
# The DMBA was dissolved in a stock solution of 20 mg DMBA/ml sesame oil, heated and allowed to cool to room temperature before administration. DMBA (Eastman Kodak, Rochester, N.Y.) was given as a single gastric intubation of 50 mg DMBA/kg rat body weight.
# In the pair-feeding study, a group of 70 mammals was treated with DMBA. Beginning four weeks post-carcinogen administration, mammals were weighed and palpated weekly.
# Fresh diets were make every 7-10 days. All mammals were provided fresh diet daily to minimize evaporation of the monoterpenes.
# In a pair-feeding study, all palpable mammary tumors were classified as either "primary" tumors (i.e., the first tumor(s) palpated with a minimum diameter of 3 mm) or "secondary" tumors (i.e. a palpable tumor arising after initial diet assignment). […] All carcinogen-exposed mammals not bearing a first palpable tumor by week 15 post-carcinogen were removed from the experiment. Complete regression of a tumor was defined as non-palpability for a minimum of three consecutive weeks. All mammals in the pair-feeding study were followed for a minimum of 10 weeks post-diet assignment for tumor growth or regression at primary tumor sites and all other mammary glands. The rats were necropsied if moribund. Complete necropsies were performed on all rats at the termination of the study.
smiles,measurement,setting,value
C=C(C)[C@@H]1CC=C(CO)CC1 [perillyl alcohol],"growth inhibition, transformed versus nontransformed cells","[1]; 100-800 μM, FIG. 9B",significantly more inhibitory for the growth of p210-transformed FDC-P1 cells compared to nontransformed FDC-P1 cells
same,growth-inhibitory curve with added IL-3,[1]; IL-3 added,significantly shifted upward
same,inhibition at 400 µM,"[1]; Mus musculus, FDC-P1, read-out: inhibition of growth",> 80%
same,reversion of autonomously growing malignant cells,[1]; conclusion from in vitro results,"reverts autonomously growing malignant cells to a factor-dependent, apoptosis-sensitive state"
same,inhibition of cell growth,M600B cells,significantly inhibited cell growth in a dose-dependent manner
same,Cell cycle distribution (% > GO /G1),"[2]; 100 μM P--OH, 24 hours",53%
same,apoptosis,"[2]; 500 μM P--OH, 24 hours",Significant apoptosis
same,Cell cycle distribution (% > GO /G1),"[2]; 500 μM P--OH, 24 hours",16%
same,arrest at the G0/G1 stage,[2]; 24 hours,almost completely arrested at the G0 /G1 stage
same,arrest at the G0/G1 stage,"[2]; 24 hours, listed as P--OH",entirely in the G0 /G1 stage of the cell cycle
same,morphological changes,[2]; up to 500 μM,morphological changes suggestive of apoptotic cell death
same,inhibition of cell growth,human cancer cell lines; variety of human cancer cell types including leukemia cells (FIG. 5A),inhibition of cell growth
same,inhibition of cancer cell growth,"human cancer cell lines; various concentrations, FIG. 5A-G, all lines",inhibited cancer cell growth
same,inhibition at 1000 µM,[3],40%
same,development of secondary tumors,[4]; 2.5% perillyl alcohol diet,inhibited the development of secondary tumors
same,Primary Tumor Regression (tumors regressed / tumors),"[4]; 2.5% perillyl alcohol diet, complete regression, pair-fed control 9/29, listed as POH",22/27
same,Primary Tumor Regression (%),"[4]; 2.5% perillyl alcohol diet, complete regression, pair-fed control 31%",81%
same,Number of Secondary Tumors/Rat,"[4]; 2.5% perillyl alcohol diet, pair-fed control 1.62",0.04
same,Time to Regress,"[4]; 2.5% perillyl alcohol diet, pair-fed control 5.6, listed as POH",3.6 ± 0.3 wks
same,Secondary Tumor Regression (tumors regressed / tumors),"[4]; 2.5% perillyl alcohol diet, pair-fed control 11/42",0/1
same,Secondary Tumor Regression (%),"[4]; 2.5% perillyl alcohol diet, pair-fed control 26%",0%
same,secondary tumors / mammals,"[4]; 2.5% perillyl alcohol diet, pair-fed control 42/26",1/26
same,amount of perillyl alcohol needed relative to the amount of limonene,[4]; 2.5% perillyl alcohol versus 10% limonene diet,25%
same,time for a primary tumor to regress to a non-palpable mass,[4]; perillyl alcohol-treated group versus pair-fed controls,shorter than the time for spontaneous regression in the pair-fed controls
